Among the data in BindingDB's records for patent US9328099 (Merck Sharp & Dohme, 2016) are IC50 values, retold here.

pIC50: −log10 of the molar value.

For assay [1], the target named is Tyrosine-protein kinase JAK2 (Homo sapiens, UniProt O60674). The experiment in a line: HTRF Biochemical Assay. The following applies: 25 °C.
Assay [2] has as its target Tyrosine-protein kinase JAK1 (Homo sapiens, UniProt P23458). Kind of assay: HTRF Biochemical Assay. The following applies: 25 °C.

Tyrosine-protein kinase JAK1, sequence (P23458 whole entry): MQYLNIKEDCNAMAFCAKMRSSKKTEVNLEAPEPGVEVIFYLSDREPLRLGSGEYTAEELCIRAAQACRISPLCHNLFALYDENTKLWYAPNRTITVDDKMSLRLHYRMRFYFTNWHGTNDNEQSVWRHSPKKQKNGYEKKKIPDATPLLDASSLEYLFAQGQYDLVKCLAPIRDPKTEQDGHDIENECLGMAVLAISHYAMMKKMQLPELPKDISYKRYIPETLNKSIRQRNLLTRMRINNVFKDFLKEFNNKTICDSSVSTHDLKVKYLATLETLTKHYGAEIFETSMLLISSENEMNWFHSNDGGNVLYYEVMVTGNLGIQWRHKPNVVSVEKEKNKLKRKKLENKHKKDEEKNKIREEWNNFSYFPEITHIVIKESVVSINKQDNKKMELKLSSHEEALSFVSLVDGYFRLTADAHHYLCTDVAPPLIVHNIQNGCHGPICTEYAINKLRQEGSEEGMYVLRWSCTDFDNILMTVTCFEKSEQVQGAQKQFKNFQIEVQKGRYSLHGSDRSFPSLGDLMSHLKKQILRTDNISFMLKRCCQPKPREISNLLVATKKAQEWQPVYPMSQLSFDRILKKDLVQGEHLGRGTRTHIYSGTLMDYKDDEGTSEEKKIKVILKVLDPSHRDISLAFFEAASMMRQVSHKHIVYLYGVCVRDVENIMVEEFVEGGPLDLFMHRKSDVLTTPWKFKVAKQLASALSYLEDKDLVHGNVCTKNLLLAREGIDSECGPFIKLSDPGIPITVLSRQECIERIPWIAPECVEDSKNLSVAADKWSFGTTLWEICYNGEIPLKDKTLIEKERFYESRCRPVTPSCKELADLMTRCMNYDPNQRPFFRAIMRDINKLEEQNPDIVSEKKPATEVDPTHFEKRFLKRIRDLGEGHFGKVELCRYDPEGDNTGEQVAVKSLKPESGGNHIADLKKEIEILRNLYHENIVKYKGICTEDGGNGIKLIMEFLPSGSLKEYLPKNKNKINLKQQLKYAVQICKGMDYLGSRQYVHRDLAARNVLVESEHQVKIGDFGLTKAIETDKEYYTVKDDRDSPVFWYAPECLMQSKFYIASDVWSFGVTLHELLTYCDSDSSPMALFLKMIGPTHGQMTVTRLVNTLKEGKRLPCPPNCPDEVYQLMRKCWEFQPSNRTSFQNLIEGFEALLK
Tyrosine-protein kinase JAK2, sequence (O60674 whole entry): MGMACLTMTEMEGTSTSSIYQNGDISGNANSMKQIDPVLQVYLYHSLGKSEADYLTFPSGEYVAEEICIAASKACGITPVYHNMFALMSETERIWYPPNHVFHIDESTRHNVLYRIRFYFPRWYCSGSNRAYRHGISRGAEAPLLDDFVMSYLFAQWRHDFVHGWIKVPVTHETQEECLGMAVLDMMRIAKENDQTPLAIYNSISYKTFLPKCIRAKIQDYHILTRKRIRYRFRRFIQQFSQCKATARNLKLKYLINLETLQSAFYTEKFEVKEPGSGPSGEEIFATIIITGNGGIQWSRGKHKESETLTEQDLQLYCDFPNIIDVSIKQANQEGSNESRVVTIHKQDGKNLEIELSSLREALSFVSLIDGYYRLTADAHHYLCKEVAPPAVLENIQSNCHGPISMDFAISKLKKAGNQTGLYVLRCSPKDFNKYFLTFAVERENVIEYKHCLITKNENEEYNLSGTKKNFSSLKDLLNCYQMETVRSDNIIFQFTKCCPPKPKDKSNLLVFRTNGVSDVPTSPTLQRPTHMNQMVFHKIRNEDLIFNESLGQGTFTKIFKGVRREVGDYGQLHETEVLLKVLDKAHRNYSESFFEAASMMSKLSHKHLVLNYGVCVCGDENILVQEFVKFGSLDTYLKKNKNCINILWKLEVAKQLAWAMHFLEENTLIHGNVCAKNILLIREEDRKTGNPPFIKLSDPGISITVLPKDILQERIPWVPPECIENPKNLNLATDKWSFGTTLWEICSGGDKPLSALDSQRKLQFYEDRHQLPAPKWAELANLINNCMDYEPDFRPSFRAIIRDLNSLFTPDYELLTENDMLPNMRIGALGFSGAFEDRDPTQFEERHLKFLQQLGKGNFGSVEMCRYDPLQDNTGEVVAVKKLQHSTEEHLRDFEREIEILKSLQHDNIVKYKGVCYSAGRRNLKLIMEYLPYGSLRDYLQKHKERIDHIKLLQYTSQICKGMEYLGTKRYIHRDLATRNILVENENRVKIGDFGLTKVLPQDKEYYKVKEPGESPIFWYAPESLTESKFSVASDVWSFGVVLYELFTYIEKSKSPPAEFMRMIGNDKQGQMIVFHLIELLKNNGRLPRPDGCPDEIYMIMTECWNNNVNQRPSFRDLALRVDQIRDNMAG

Turning to `Cc1cc(F)c(Nc2ccnc3c2C(=O)Nc2cc(CN4CC[C@@H](N)C4)ccc2N3)cc1O` [US9328099, 29-A], the pIC50 in assay [1] was 7.40; in assay [2], 9.00.
